The text below walks through data of patent US20160302411A1, “BLENDS AND THEIR USE IN THE CONTROLLING AND/OR TRAPPING OF MOTHS” (BIOFORSK (THE NORWEGIAN INSTITUTE FOR AGRICULTURAL AND …, priority 2013, published 2016).

Where only a bound is given, the exact number is not on record here.

The first experiment deals with antennae of mated female C. nigricana. The experiment is described as follows: GC-EAD electro-antennography, antennal response to synthetic pea volatiles. The conditions noted are these: 10 μg in 10 μl hexane on filter paper, puff 10 ml/sec during 0.2 sec. Also on record: species or system Cydia nigricana. How it is done:
C. nigricana were collected as larvae in the North of Hesse, Germany. The keeping of the insects followed the protocol of Thöming and Saucke (2011). Emerging adults mated in Plexiglas cages (30×30×30 cm) in a climate chamber (18±2° C., 60-70% RH, 18:6h L:D). The moths were provided with 10%-honey water solution and water until the experiment. Antennal recordings and wind tunnel tests were done with five-to-seven-days old mated females. After the experiments, females were dissected to verify their mating status and only mated females were used for analysis.
The synthetic odour sources were prepared to mimic natural pea flower odour. The quantity, ratio and blend composition was based on the identification and quantification of compounds emitted from detached pea flowers (50 flowers/headspace sample; mean value, n=10) of P. sativum (cv. AVOLA). The synthetic analogues of all 28 identified compounds released from pea plant material (Table 1) were used for combined gas chromatography-electroantennal detection (GC-EAD) analysis.
GC-EAD was used for antennal recordings on a HP 6890N gas chromatograph, equipped with an HP-5 (30 m×320 μm×0.25 μm; Agilent, Santa Clara, Calif., US) capillary GC column, programmed from 40° C. (hold for 0.5 min) at 8° C./min to 160° C., then 25° C./min to 230° C. (hold for 4 min), and coupled with an electro-antennogram apparatus (Syntech, Hilversum, The Netherlands). The outlet of the GC column was split in a 1:1 ratio between the flame ionization detector (FID) and a pair of cut pea moth antennae which was connected to the EAD. The antennae were mounted in a holder (Syntech) between two silver electrodes, using electrically conductive Gel (Parker, Fairfield, N.J., US). The EAD capillary effluent was delivered to the antennae through a heated transfer line (Syntech) in a glass tube (12 cm×8 mm) in which humidified air was flowing through. The antennal signal and the FID signal were amplified and recorded simultaneously using Syntech software. Each sample injected on the GC contained 5-9 synthetic compounds with different retention times. Each compound was injected at four doses (200 ng, 60 ng, 20 ng, 6 ng), equivalent to 100 ng, 30 ng, 10 ng, 3 ng tested on the antennae. The antennal responses towards compounds and dose rates, respectively, were replicated three to five times, always using a new pair of antennae. […] Only antennae with differences less than 5 μV between the puff before and after the treatment were used for analysis.
For the molecule `C=C/C=C(\C)CCC=C(C)C` [DMNT, 4,8-dimethyl-1, (E) 3,7-nonatriene, reference compound], the “antennal response to odour puff (antennal condition test)” value was “reproducible antennal responses”.

Staying with this experiment, now noted: GC-EAD dose response over four doses (FIG. 1).
Consider `CCCCCCO` [1-hexanol], for which the “increase of antennal response with dose, ANOVA P” value is 0.0003.
On the same count and under the same terms, in the case of `CCC/C=C/C=O` [2-(E)-hexenal] it was 0.0139.
The same measure, in the same setting: in the case of `CCC/C=C/CO` [(E)-2-hexen-1-ol] it was 0.0049.
On the same count and under the same terms, then `C=C/C(C)=C/CC=C(C)C` [(E)-β-ocimene], with 0.0051; and `CC/C=C\CCO` [(Z)-3-hexenol], with 0.6578; and `CC/C=C\CCOC(C)=O` [(Z)-3-hexenyl acetate], with 0.0091.
As for `C=C/C(C)=C\CC=C(C)C` [(Z)-β-ocimene], the “increase of antennal response with dose, ANOVA P” value is reported as 0.0252.
Still for that read-out and setting: then `CCCCCCCCC=O` [nonanal], with 0.0067; and `CCCCCCCC=O` [octanal], with less than 0.0001.
